# Test results: the supplement of paper PMC11208160
# Test: recombinant barcode read abundance after kanamycin selection (control-corrected) (log10(CPM+1)); higher = more efficient recombination; sequences stand for … in AGTGCAGAGAAAATCGGCCAGTTTTCTCTGCCTGCAGTCCGCATGCCGT…AGATTTATGCAGCGGACTGCCTTTCTCCCAAAGTGATAAACCGGACAGTATCATGGACCGGTTTTCCCGGTAATCCGTATTTGCAAGGTTGGTTTCACT; site = the 11-nt target
# Summary of the method: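 Duplicate cultures were plated either on chloramphenicol/ampicillin LB agar, serving as control, or on chloramphenicol/ampicillin/kanamycin with 0.1 mM IPTG. These came from a pooled E. coli library co-electroporated with a donor plasmid, each member pairing a target with an IS621 bridge RNA target-binding loop. Recombination efficiency equals averaged, control-corrected counts per million of recombinant-junction barcodes. It is listed as log10(CPM+1).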
# 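Further: IS621 recombinase and bridge RNA in Escherichia coli cells.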
row,Sequence,recombinant barcode read abundance (log10)
1,TATTCTACTTGGGTTCTAACCTGTTGCGG (site TATTCTACTCC),0.223
2,TATTCTACTTGGGTTCTAACCTGTTGCGG (site TATTCTACTGC),0.101
3,TATTCTACTTGGGTTCTAACCTGTTGCGG (site TATTCTACTTC),0.169
4,TATTGGCCTTGGGTTCTAACCTGTTGCGT (site ACGACTACTCG),0.0203
5,TATTGGCCTTGGGTTCTAACCTGTTGCGT (site TATTGGCCTAC),0.202
6,TATTTCTCTTGGGTTCTAACCTGTTGCCT (site AATTTCTCTAG),0.0527
7,TATTTCTCTTGGGTTCTAACCTGTTGCCT (site CATTTCTCTAG),0.0799
8,TATTTCTCTTGGGTTCTAACCTGTTGCCT (site GATTTCTCTAG),0.0942
9,TATTTCTCTTGGGTTCTAACCTGTTGCCT (site TATTTCTCTAG),0.157
10,TATTTGCCTTGGGTTCTAACCTGTTGCTG (site GCACCTGCTAG),0.183
11,TATTTGCCTTGGGTTCTAACCTGTTGCTG (site TATTTGCCTCA),0.0916
12,TCAAAGCCTTGGGTTCTAACCTGTTGCTG (site TCAAAGCCTCA),0.252
13,TCAAAGCCTTGGGTTCTAACCTGTTGCTG (site TCACAGCCTCA),0.204
14,TCAAAGCCTTGGGTTCTAACCTGTTGCTG (site TCAGAGCCTCA),0.372
15,TCAAAGCCTTGGGTTCTAACCTGTTGCTG (site TCATAGCCTCA),0.217
16,TCAAGACCTTGGGTTCTAACCTGTTGCCT (site TCAAGACCTAG),0.617
17,TCAAGACCTTGGGTTCTAACCTGTTGCCT (site TCAAGACCTCG),0.0935
18,TCACAGCCTTGGGTTCTAACCTGTTGCTG (site TCAAAGCCTCA),0.106
19,TCACAGCCTTGGGTTCTAACCTGTTGCTG (site TCACAGCCTCA),0.476
20,TCACAGCCTTGGGTTCTAACCTGTTGCTG (site TCAGAGCCTCA),0.176
21,TCACAGCCTTGGGTTCTAACCTGTTGCTG (site TCATAGCCTCA),0.178
22,TCACAGTCTTGGGTTCTAACCTGTTGCCT (site TAACACTCTAG),0.0324
23,TCACAGTCTTGGGTTCTAACCTGTTGCCT (site TCACAGTCTAG),1.59
24,TCACATGCTTGGGTTCTAACCTGTTGCCT (site TCACATGCTAG),1.28
25,TCACATGCTTGGGTTCTAACCTGTTGCCT (site TCACCTGCTAG),0.0279
26,TCACATGCTTGGGTTCTAACCTGTTGCCT (site TCACGTGCTAG),0.179

row,Sequence,recombinant barcode read abundance (log10)
1,TCACATGCTTGGGTTCTAACCTGTTGCCT (site TCACTTGCTAG),0.119
2,TCACATTCTTGGGTTCTAACCTGTTGCCT (site TCAAATTCTAG),0.228
3,TCACATTCTTGGGTTCTAACCTGTTGCCT (site TCACATTCTAG),0.31
4,TCACATTCTTGGGTTCTAACCTGTTGCCT (site TCAGATTCTAG),0.183
5,TCACATTCTTGGGTTCTAACCTGTTGCCT (site TCATATTCTAG),0.155
6,TCAGAGCCTTGGGTTCTAACCTGTTGCTG (site TCAAAGCCTCA),0.025
7,TCAGAGCCTTGGGTTCTAACCTGTTGCTG (site TCACAGCCTCA),0.0728
8,TCAGAGCCTTGGGTTCTAACCTGTTGCTG (site TCAGAGCCTCA),1.28
9,TCAGAGCCTTGGGTTCTAACCTGTTGCTG (site TCATAGCCTCA),0.0059
10,TCAGGAGCTTGGGTTCTAACCTGTTGCAG (site TCAGGAGCTCC),0.0921
11,TCAGGAGCTTGGGTTCTAACCTGTTGCAG (site TCAGGAGCTCT),1.57
12,TCATTGACTTGGGTTCTAACCTGTTGCCT (site TCATTGACTAG),0.622
13,TCATTGACTTGGGTTCTAACCTGTTGCCT (site TTATTCACTAG),0.0739
14,TCCAAATCTTGGGTTCTAACCTGTTGCCT (site AGACTGACTCC),0.109
15,TCCAAATCTTGGGTTCTAACCTGTTGCCT (site TCCAAATCTAG),0.317
16,TCCAACCCTTGGGTTCTAACCTGTTGCAG (site TCCAAACCTCT),0.066
17,TCCAACCCTTGGGTTCTAACCTGTTGCAG (site TCCAACCCTCT),1.69
18,TCCAACCCTTGGGTTCTAACCTGTTGCAG (site TCCAAGCCTCT),0.0523
19,TCCAACCCTTGGGTTCTAACCTGTTGCAG (site TCCAATCCTCT),0.0309
20,TCCAACCCTTGGGTTCTAACCTGTTGCTG (site GCCAAGCCTCA),0.0799
21,TCCAACCCTTGGGTTCTAACCTGTTGCTG (site TCCAACCCTCA),1.65
22,TCCAACCCTTGGGTTCTAACCTGTTGCTT (site CAGGGGACTGT),0.0296
23,TCCAACCCTTGGGTTCTAACCTGTTGCTT (site TCCAACCCTAA),0.391
24,TCCAACTCTTGGGTTCTAACCTGTTGCAC (site CATCCTACTAG),0.0443
25,TCCAACTCTTGGGTTCTAACCTGTTGCAC (site TCCAACTCTGT),0.903
26,TCCAAGGCTTGGGTTCTAACCTGTTGCTA (site CTGCGTACTCG),0.0788

row,Sequence,recombinant barcode read abundance (log10)
1,TCCAAGGCTTGGGTTCTAACCTGTTGCTA (site TCCAAGGCTTA),0.275
2,TCCAATACTTGGGTTCTAACCTGTTGCCG (site TCCAACACTCG),0.0602
3,TCCAATACTTGGGTTCTAACCTGTTGCCG (site TCCAATACTCG),0.269
4,TCCAGCTCTTGGGTTCTAACCTGTTGCCT (site ACCAGATCTAG),0.0273
5,TCCAGCTCTTGGGTTCTAACCTGTTGCCT (site TCCAGCTCTAG),0.631
6,TCCAGGGCTTGGGTTCTAACCTGTTGCCT (site TCCAGGGCTAG),0.185
7,TCCAGGGCTTGGGTTCTAACCTGTTGCCT (site TCCTGGCCTAG),0.0786
8,TCCAGTACTTGGGTTCTAACCTGTTGCAT (site TCCAGTACTAT),0.351
9,TCCAGTACTTGGGTTCTAACCTGTTGCAT (site TCCCGTACTAT),0.0322
10,TCCAGTACTTGGGTTCTAACCTGTTGCAT (site TCCGGTACTAT),0.564
11,TCCAGTACTTGGGTTCTAACCTGTTGCAT (site TCCTGTACTAT),0.105
12,TCCCATACTTGGGTTCTAACCTGTTGCGA (site CTTGGGTCTAT),0.0603
13,TCCCATACTTGGGTTCTAACCTGTTGCGA (site TCCCATACTTC),1.57
14,TCCCATCCTTGGGTTCTAACCTGTTGCCT (site TCCCATACTAG),0.0689
15,TCCCATCCTTGGGTTCTAACCTGTTGCCT (site TCCCATCCTAG),0.757
16,TCCCATCCTTGGGTTCTAACCTGTTGCCT (site TCCCATGCTAG),0.0237
17,TCCCATCCTTGGGTTCTAACCTGTTGCCT (site TCCCATTCTAG),0.592
18,TCCCATCCTTGGGTTCTAACCTGTTGCGT (site TCCCATCCTAC),2.38
19,TCCCATCCTTGGGTTCTAACCTGTTGCGT (site TCCTATCCTAC),0.0583
20,TCCCGTACTTGGGTTCTAACCTGTTGCAT (site TCCAGTACTAT),0.382
21,TCCCGTACTTGGGTTCTAACCTGTTGCAT (site TCCCGTACTAT),0.43
22,TCCCGTACTTGGGTTCTAACCTGTTGCAT (site TCCGGTACTAT),0.0638
23,TCCCGTACTTGGGTTCTAACCTGTTGCAT (site TCCTGTACTAT),0.159
24,TCCCTATCTTGGGTTCTAACCTGTTGCCT (site TACCTATCTAG),0.223
25,TCCCTATCTTGGGTTCTAACCTGTTGCCT (site TCCCTATCTAG),0.758
